According to US20120077676A1, “Antifungal 1,2,4-Triazolyl Derivatives Having a 5-Sulfur Substituent” (BASF SE, priority 2009, published 2012):

Experiments:
[1] = test system: Phakopsora pachyrhizi; assay: Curative control of soy bean rust on soy beans, green house test; assay type: in vivo, Phakopsora pachyrhizi on soy bean seedlings; conditions: 300 ppm, curative spray after inoculation; assessed after 14 days; untreated plants 90% infected
Procedure: (§1) The spray solutions were prepared in several steps: A mixture of acetone and/or dimethylsulfoxide and the wetting agent/emulsifier Wettol, which is based on ethoxylated alkylphenoles, in a relation (volume) solvent-emulsifier of 99 to 1 was added to 25 mg of the compound to give a total of 10 ml. Water was then added to total volume of 100 ml. This stock solution was diluted with the described solvent-emulsifier-water mixture to the given concentration.
Leaves of pot-grown soy bean seedlings were inoculated with spores of Phakopsora pachyrhizi. To ensure the success of the artificial inoculation, the plants were transferred to a humid chamber with a relative humidity of about 95% and 20 to 24° C. for 24 h. The next day the plants were cultivated for 2 days in a greenhouse chamber at 23-27° C. and a relative humidity between 60 and 80%. Then the plants were sprayed to run-off with an aqueous suspension, containing the concentration of active ingredient as described below. The plants were allowed to air-dry. Then the trial plants were cultivated for 14 days in a greenhouse chamber at 23-27° C. and a relative humidity between 60 and 80%. The extent of fungal attack on the leaves was visually assessed as % diseased leaf area.

[2] = test system: Puccinia recondite; assay: Preventative control of brown rust on wheat, green house test; assay type: in vivo, Puccinia recondite on wheat seedlings; conditions: 300 ppm, preventative spray one day before inoculation; assessed after 6 days in greenhouse; untreated plants 80% infected
Procedure: as §1
The first two developed leaves of pot-grown wheat seedling were sprayed to run-off with an aqueous suspension, containing the concentration of active ingredient or their mixture as described below. The next day the plants were inoculated with spores of Puccinia recondite. To ensure the success the artificial inoculation, the plants were transferred to a humid chamber without light and a relative humidity of 95 to 99% and 20 to 24° C. for 24 h. Then the trial plants were cultivated for 6 days in a greenhouse chamber at 20-24° C. and a relative humidity between 65 and 70%. The extent of fungal attack on the leaves was visually assessed as % diseased leaf area.

[3] = test system: Botrytis cinerea; assay: Activity against the grey mold Botrytis cinerea in the microtiterplate test (Botrci); assay type: cell-based; conditions: 31 ppm active compound; absorption at 405 nm 7 days after inoculation; active compound-free control = 100%
Procedure: The active substances were formulated separately as a stock solution in dimethyl sulfoxide (DMSO) at a concentration of 10 000 ppm. The stock solutions were mixed according to the ratio, pipetted onto a micro titer plate (MTP) and diluted with water to the concentration given below. A spore suspension of Botrytis cinerea in an aqueous biomalt solution was then added. The plates were placed in a water vapor-saturated chamber at a temperature of 18° C. Using an absorption photometer, the MTPs were measured at 405 nm 7 days after the inoculation. The measured parameters were compared to the growth of the active compound-free control variant (100%) and the fungus-free and active compound-free blank value to determine the relative growth in % of the pathogens in the respective active compounds.

Structure (SMILES)	infection (% diseased leaf area) [1]	infection (% diseased leaf area) [2]	relative growth in % of the pathogen [3]
CC(C1CC1)C(O)(Cn1ncnc1S)c1ccccc1 (stereo not shown) [I.A.4, 2-Phenyl-3-cyclopropyl-1-(5-mercapto-[1,2,4]triazol-1-yl)-butan-2-ol]	0%	20%	–
OC(CC1CC1)(Cn1ncnc1S)c1ccc(Cl)cc1 (stereo not shown) [I.A.1, 2-(4-Chloro-phenyl)-3-cyclopropyl-1-(5-mercapto-[1,2,4]triazol-1-yl)-propan-2-ol]	0%	20%	–
CC(C1CC1)C(O)(Cn1ncnc1S)c1ccc(Cl)c(Cl)c1 (stereo not shown) [I.A.5, 2-(3,4-Dichloro-phenyl)-3-cyclopropyl-1-(5-mercapto-[1,2,4]triazol-1-yl)-butan-2-ol]	0%	20%	–
CC(C1CCCC1)C(O)(Cn1ncnc1S)c1ccc(Cl)cc1 (stereo not shown) [I.A.7, 2-(4-Chloro-phenyl)-3-cyclopentyl-1-(5-mercapto-[1,2,4]triazol-1-yl)-butan-2-ol]	0%	20%	–
CC(C1CC1)C(O)(Cn1ncnc1S)c1ccc(F)c(F)c1 (stereo not shown) [I.A.8, 2-(3,4-Difluoro-phenyl)-3-cyclopropyl-1-(5-mercapto-[1,2,4]triazol-1-yl)-butan-2-ol]	0%	20%	–
CC(C1CCCCC1)C(O)(Cn1ncnc1S)c1ccc(Cl)cc1 (stereo not shown) [I.A.3, 2-(4-Chloro-phenyl)-3-cyclohexyl-1-(5-mercapto-[1,2,4]triazol-1-yl)-butan-2-ol]	0%	20%	0%
CC(C1(C)CC1)C(O)(Cn1ncnc1S)c1ccc(Cl)cc1 (stereo not shown) [I.A.6, 2-(4-Chloro-phenyl)-3-(1-methylcyclopropyl)-1-(5-mercapto-[1,2,4]triazol-1-yl)-butan-2-ol]	0%	20%	0%
OC(CC1CC1)(Cn1ncnc1S)c1ccc(Cl)cc1Cl (stereo not shown) [I.A.2, 2-(2,4-Dichloro-phenyl)-3-cyclopropyl-1-(5-mercapto-[1,2,4]triazol-1-yl)-propan-2-ol]	0%	20%	–
CC(C1(C)CC1)C(O)(Cn1ncnc1S)c1ccccc1 (stereo not shown) [I.A.9, 2-Phenyl-3-(1-methylcyclopropyl)-1-(5-mercapto-[1,2,4]triazol-1-yl)-butan-2-ol]	0%	–	–
